Reference: patent publication US20230151024A1, “STING AGONISTIC COMPOUND” (ONO PHARMACEUTICAL CO., LTD., priority 2020, published 2023)

Experiments:
[1] = Conversion of a prodrug to an active body thereof in mouse plasma; type: in vitro ADME; settings: 1 μmol/L, 37° C. for 60 minutes, conversion to the compound in Example 3
Procedure: (§1) The solutions of the example compounds in Table 5 below (50 μmol/L, 50% acetonitrile with 5% DMSO) were added to plasma (245 μL), respectively, such that the final concentrations thereof become 1 μmol/L. After keeping them at 37° C. for 60 minutes, 40 μL of the reaction solutions were taken therefrom, and added to 200 μL of acetonitrile/ethanol (7:3) containing Candesartan (internal standard).
(§2) The concentration of the compound prepared in Example 3 in the plasma resulting from the above reaction was analyzed by LC-MS/MS according to the following method.
(§3) Prominence UFLCXR (Shimadzu Corporation), API5000 (AB Sciex)
(§4) The whole amount was transferred to a filter plate for protein removal and filtered by suction, and the filtrate thereof was diluted 2-fold with water. [LC column] Shim-pack XR-ODSII 2.0 mm ID x 75 mm (Shimadzu Corporation)
(§5) Column temperature: 40° C. Mobile phase: A: 0.2% formic acid in 5 mM ammonium acetate solution; and
(§6) Electrospray, positive mode, multiple reaction monitoring;
(§7) Compound prepared in Example 3: m/z353.0→m/z311.2, DP: 80, CE: 35; and Candesartan (internal standard): m/z309.1→m/z163.0, DP: 71, CE: 21.
(§8) A regression formula was calculated from the peak area ratio of the real sample and the standard sample for the calibration curve in the same matrix (peak area of the compound in Example 3/peak area of Candesartan), and the peak area ratio of the real sample was substituted into the regression formula to calculate the quantitative value. 60 minutes later, the concentration of the compound in Example 3 in the sample was compared, and the conversion rate (%) thereof was calculated using the following formula:
(§9) Conversion rate (%)=Concentration of the compound in Example 3 in the sample after 60 minutes (μmol/L)×100

[2] = Conversion of a prodrug to an active body thereof in human plasma; type: in vitro ADME; settings: 1 μmol/L, 37° C. for 60 minutes, conversion to the compound in Example 3
Procedure: as §1, §2, §3, §4, §5, §6, §7, §8, §9

THP1-Dual-STING KO cells = experiment: Effects on THP1-Dual-STING KO cells (activity of the IRF pathway); type: cell-based; settings: STING gene homozygous deficient THP1-Dual cells, about 24 hours
Procedure: STING gene homozygous deficient THP1-Dual cells (THP1-Dual-STING KO cells (Invivogen) were suspended in RPMI medium to prepare 2×10^6 cells/mL cell suspension. 50 μL of cell suspensions were dispensed into a 96-well plate, to which 50 μL of 6 to 20,000 nM compound solutions were further added, followed by incubation at 37° C. for about 24 hours. 10 μL of the cell suspensions were collected from each well, which were mixed with 50 μL of Quanti-luc (Invivogen), and then the activity of the IRF pathway was measured by detecting luminescence using a microplate reader.

IDO1 = biological target: T1, IDO1 (Homo sapiens, UniProt P14902); experiment: Evaluation of IDO1 inhibitory activity (IDO1 Fluorogenic Inhibitor Screening Assay Kit); type: biochemical; settings: compound solutions of 0.6, 2, 6, 20, 60 and 200 μmol/L added
T1 construct: purchased BPS Bioscience
T1 sequence (P14902 whole entry): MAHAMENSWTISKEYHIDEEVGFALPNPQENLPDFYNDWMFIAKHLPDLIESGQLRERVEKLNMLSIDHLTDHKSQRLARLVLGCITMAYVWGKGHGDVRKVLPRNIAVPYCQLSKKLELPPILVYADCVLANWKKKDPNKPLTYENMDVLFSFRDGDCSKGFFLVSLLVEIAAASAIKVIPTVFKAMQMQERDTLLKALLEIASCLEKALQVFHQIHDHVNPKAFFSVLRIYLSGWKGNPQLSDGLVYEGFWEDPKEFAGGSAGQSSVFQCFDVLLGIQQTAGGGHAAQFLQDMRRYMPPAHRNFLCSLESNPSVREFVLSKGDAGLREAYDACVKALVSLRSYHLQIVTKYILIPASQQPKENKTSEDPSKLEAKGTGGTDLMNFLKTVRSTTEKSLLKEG
Procedure: The evaluation of IDO1 inhibitory activity was carried out using the IDO1 Fluorogenic Inhibitor Screening Assay Kit (BPS Bioscience). Specifically, IDO1 Fluorogenic Reaction Solution was dissolved, of which 180 μL were added to each well. Then, 10 μL of the compounds at the respective concentrations of 0.6, 2, 6, 20, 60 and 200 μmol/L were added thereto. Further, after adding 10 μL of IDO1 His-Tag solution thereto, and the mixture thereof was incubated at room temperature for 1 hour, and then 20 μL of Fluorescence Solution was added thereto, and the mixture thereof was incubated at 37° C. for 4 hours. After standing them at room temperature for 10 minutes, the fluorescence was measured using a microplate reader (excitation: 400 nm, emission: 510 nm).

[3] = system: BTK, KDR, each subtype of PKCα to t, each CDK of CDK2 to 9, FAK, TIE2, RAF1 and BRAF; experiment: Evaluation of inhibitory activity against various kinases (mobility shift, LabChip); type: biochemical; settings: 4 μmol/L test substance solution at 4 times the final concentration
Procedure: 4 μmol/L of the test substance solution (the compound in the present invention produced in Example 1) (at 4 times the final concentration) was prepared by dissolving it to the assay buffer (20 mmol/L HEPES, 0.01% Triton X-100, 1 mmol/L DTT, pH 7.5). 4 μmol/L of the substrate/ATP/metal solution (at 4 times the final concentration) was prepared by dissolving it to the kit buffer (20 mmol/L HEPES, 0.01% Triton X-100, 5 mmol/L DTT, pH 7.5). Various kinase solutions at twice the final concentration were prepared by dissolving them to the assay buffer. 5 μL of the test substance solution, 5 μL of the substrate/ATP/metal solution and 10 μL of the kinase solution were mixed in wells of a polypropylene 384-well plate, and the mixture thereof was reacted at room temperature for 1 to 5 hours. The reaction was stopped by adding 70 μL of the termination buffer (QuickScout Screening Assist MSA; Carna Biosciences). The substrate peptide and phosphorylated peptide in the reaction solution were separated and quantified by LabChip system (Perkin Elmer). The kinase reaction was evaluated based on the product ratio (P/(P+S)) calculated from the peak height (S) of the substrate peptide and the peak height (P) of the phosphorylated peptide. The various kinases used in this evaluation are as follows:
BTK, KDR, each subtype of PKCα to t, each CDK of CDK2 to 9, FAK, TIE2, RAF1 and BRAF.

[4] = system: colon cancer cell line MC38; experiment: Anti-tumor effect in a subcutaneously colon cancer cell line MC38 tumor-bearing mouse model (Example 17); type: in vivo, mice (C57/BL6); settings: 3 mg/kg, administered 7 days after MC38 transplantation, measured until Day 26
Procedure: Colon cancer cell line MC38 derived from C57/BL6 mice were subcutaneously transplanted to right flank region of syngeneic mice (C57/BL6, female, 6 weeks old (Charles River Japan)) (herein, the day of transplantation was designated as Day 0) to prepare subcutaneously MC38 tumor-bearing mice. Seven days after transplantation, the subcutaneously MC38 tumor-bearing mice were grouped based on tumor volume, and the Vehicle group (n=8) and group to which the compound shown in Example 1 (3 mg/kg, n=6) was administered were set. The changes in tumor volume were continuously measured until 26 days after transplantation (Day 26). The tumor volume was calculated by the following formula:
[Tumor volume (mm^3)]=[major axis (mm)]×[minor axis (mm)]^2×0.5

| Compound | Plasma conversion rate Mouse [1] | Plasma conversion rate Human [2] | IRF activating effect (THP1-Dual-STING KO cells) | IDO1 inhibitory activity (IDO1) | inhibitory activity against various kinases [3] | tumor growth (tumor volume) [4] |
| --- | --- | --- | --- | --- | --- | --- |
| CC(=O)c1cc(-c2ncc(-c3cnn(COP(=O)(O)OCOC(=O)OC(C)C)c3)c3onc(N)c23)c(F)cc1N [Example 12(11), ((((4-(4-(5-acetyl-4-amino-2-fluorophenyl)-3-aminoisoxazolo[4,5-c]pyridin-7-yl)-1H-pyrazol-1-yl)methoxy)(hydroxy)phosphoryl)oxy)methyl isopropyl carbonate] | + (the conversion rate of each example compound in the table to the compound in Example 3 is less than 25%) | + (the conversion rate of each example compound in the table to the compound in Example 3 is less than 25%) | – | – | – | – |
| CNCC(=O)OCc1cccnc1N(C)C(=O)OC(C)n1cc(-c2cnc(-c3cc(C(C)=O)c(N)cc3F)c3c(N)noc23)cn1 (centres unmarked) [Example 12(2), (2-(((1-(4-(4-(5-acetyl-4-amino-2-fluorophenyl)-3-aminoisoxazolo[4,5-c]pyridin-7-yl)-1H-pyrazol-1-yl)ethoxy)carbonyl)(methyl)amino)pyridin-3-yl)methyl methylglycinate] | + + + | + + + | – | – | – | – |
| CC(=O)c1cc(-c2ncc(-c3cnn(C(=O)NCC(=O)O)c3)c3onc(N)c23)c(F)cc1N [Example 12(9), (4-(4-(5-acetyl-4-amino-2-fluorophenyl)-3-aminoisoxazolo[4,5-c]pyridin-7-yl)-1H-pyrazole-1-carbonyl)glycine] | + (the conversion rate of each example compound in the table to the compound in Example 3 is less than 25%) | + (the conversion rate of each example compound in the table to the compound in Example 3 is less than 25%) | – | – | – | – |
| CC(=O)c1cc(-c2ncc(-c3cnn(COC(=O)OCCN4CCOCC4)c3)c3onc(N)c23)c(F)cc1N.Cl [Example 12(4), (4-(4-(5-acetyl-4-amino-2-fluorophenyl)-3-aminoisoxazolo[4,5-c]pyridin-7-yl)-1H-pyrazol-1-yl)methyl (2-morpholinoethyl)carbonate hydrochloride] | + + + | + + + | – | – | – | – |
| CC(=O)c1cc(-c2ncc(-c3cnn(COP(=O)(O)O)c3)c3onc(N)c23)c(F)cc1N [Example 10(1), (4-(4-(5-acetyl-4-amino-2-fluorophenyl)-3-aminoisoxazolo[4,5-c]pyridin-7-yl)-1H-pyrazol-1-yl)methyl dihydrogen phosphate] | + + + | + + + | – | – | – | – |
| CC(=O)c1cc(-c2ncc(-c3cnn(COC(=O)N(C)c4ncccc4COP(=O)(O)O)c3)c3onc(N)c23)c(F)cc1N [Example 12(1), (4-(5-(5-acetyl-4-amino-2-fluorophenyl)-3-aminoisoxazolo[4,5-c]pyridin-7-yl)-1H-pyrazol-1-yl)methyl methyl(3-((phosphonooxy)methyl)pyridin-2-yl)carbamate] | + (the conversion rate of each example compound in the table to the compound in Example 3 is less than 25%) | + + | – | – | – | – |
| CNCC(=O)OCc1cccnc1N(C)C(=O)OCn1cc(-c2cnc(-c3cc(C(C)=O)c(N)cc3F)c3c(N)noc23)cn1.Cl [Example 12(3), 2-((2-((((4-(4-(5-acetyl-4-amino-2-fluorophenyl)-3-aminoisoxazolo[4,5-c]pyridin-7-yl)-1H-pyrazol-1-yl)methoxy)carbonyl)(methyl)amino)pyridin-3-yl)methoxy)-N-methyl-2-oxoethane-1-ammonium chloride] | + + + | + + + | – | – | – | – |
| COC(=O)n1cc(-c2cnc(-c3cc(C(C)=O)c(N)cc3F)c3c(N)noc23)cn1 [Example 12(10), methyl 4-(4-(5-acetyl-4-amino-2-fluorophenyl)-3-aminoisoxazolo[4,5-c]pyridin-7-yl)-1H-pyrazole-1-carboxylate] | + + + | + + + | – | – | – | – |
| COC(=O)c1cc(-c2ncc(-c3cn[nH]c3)c3onc(N)c23)c(F)cc1N [Example 1, methyl 2-amino-5-(3-amino-7-(1H-pyrazol-4-yl)isoxazolo[4,5-c]pyridin-4-yl)-4-fluorobenzoate] | – | – | no IRF activating effect | no IDO1 inhibitory activity | no significantly inhibit activities | almost completely suppressed the tumor growth |
| CC(=O)c1cc(-c2ncc(-c3cnn(COC(=O)OC[C@H]4OC(O)[C@H](N)[C@@H](O)[C@@H]4O)c3)c3onc(N)c23)c(F)cc1N.Cl (stereo partly drawn) [Example 12(6), (4-(4-(5-acetyl-4-amino-2-fluorophenyl)-3-aminoisoxazolo[4,5-c]pyridin-7-yl)-1H-pyrazol-1-yl)methyl (((2R,3S,4R,5R)-5-amino-3,4,6-trihydroxytetrahydro-2H-pyran-2-yl)methyl) carbonate hydrochloride] | + + + | + + + | – | – | – | – |
| CC(=O)c1cc(-c2ncc(-c3cnn(COC(=O)N4CCC(N5CCCCC5)CC4)c3)c3onc(N)c23)c(F)cc1N [Example 12, (4-(4-(5-acetyl-4-amino-2-fluorophenyl)-3-aminoisoxazolo[4,5-c]pyridin-7-yl)-1H-pyrazol-1-yl)methyl [1,4′-bipiperidine]-1′-carboxylate] | + (the conversion rate of each example compound in the table to the compound in Example 3 is less than 25%) | + (the conversion rate of each example compound in the table to the compound in Example 3 is less than 25%) | – | – | – | – |
| CC(=O)c1cc(-c2ncc(-c3cnn(COC(=O)OC[C@H]4OC(O)[C@H](O)[C@@H](O)[C@@H]4O)c3)c3onc(N)c23)c(F)cc1N (stereo partly drawn) [Example 12(5), (4-(4-(5-acetyl-4-amino-2-fluorophenyl)-3-aminoisoxazolo[4,5-c]pyridin-7-yl)-1H-pyrazol-1-yl)methyl (((2R,3S,4S,5R)-3,4,5,6-tetrahydroxytetrahydro-2H-pyran-2-yl)methyl) carbonate] | + + + | + + + | – | – | – | – |
